Data set [1] is described as follows: Tissue distribution test in mice. Format: in vivo. On the set-up: content in the brain (tissue distribution): unit not given here. The following applies: 16 mg/kg subcutaneous injection.
In data set [2] the test system is reserpine-induced mice depression. The experiment in a line: Reserpine-induced mice depression. Format: in vivo, ICR mouse. On the set-up: Awakening / Finger contact / Head touch / Fear / Autonomic activity / Eyelid closure / Upright: scale not given here. The procedure: • Species: ICR mouse • Microbiological level: SPF • Quantity and sex of the animals purchased: male: 75; female: 75 • Quantity and sex of the animals used: male: 75; female: 75 • Body weight: 13-18 g when accepted
Group design: there were 50 pieces for each batch of animals and 3 batches in total; each batch of animals were randomly divided into 5 groups; low, middle and high-dose groups of the samples for test, blank control group and model group; a sample for test was tested per batch.
3.1 Animals were administrated via subcutaneous injection per day with doses of 4, 8 and 16 mg/kg for 6 d in total. 2 h later after the final administration, each animal was subcutaneously injected with 4 mg/kg reserpine except the blank control group; afterwards, indicators, such as, awakening, finger contact, fear, head touch, autonomic activity, upright and eyelid closure were determined 2 h later.
Data statistics and analysis were completed via a computer by SPSS 17.0 software and office 2016, and data statistics was inspected by Kruskal-Wallis. If the Kruskal-Wallis inspection result is significant ((P<0.05), multiple comparison inspection is further performed by a Mann-Whitney U nonparametric test method.

Where [3] appears, read: high dose 16 mg/kg sc 6 d, 2 h after reserpine 4 mg/kg.
The mark [4] stands for this setting: low dose 4 mg/kg sc 6 d, 2 h after reserpine 4 mg/kg.
Where [5] appears, read: middle dose 8 mg/kg sc 6 d, 2 h after reserpine 4 mg/kg.

The text below walks through data of US20230090255A1, “MAGL INHIBITOR, PREPARATION METHOD THEREFOR AND USE THEREOF” (LUNAN PHARMACEUTICAL GROUP CORPORATION, priority 2019, published 2023).

Structures are written as SMILES. Marks after values point to notes of the source that are not given here.

Take `O=C(Nc1cccc(Cl)c1)C1CCN(C(=O)c2cccc(O)c2)CC1` [MAGLZ-II-11]: the “content in the brain, ranking of the test substances” value in data set [1] is “lowest”. Moreover, in data set [1] (1.0 h), the “content in the brain (tissue distribution)” value was 0. Further, the “content in the brain (tissue distribution)” value in data set [1] (2.0 h) is 1.6. Besides, in data set [1] (5.0 h), the “content in the brain (tissue distribution)” value is given as 1.3. Also, the “effect on reserpine-induced depression (conclusion)” value in data set [2] (4, 8 and 16 mg/kg sc 6 d) was “has a certain effect”. Moreover, in data set [2] (setting [3]), the Autonomic activity is reported as 1.8±1.66* *, the Awakening worked out at 3.2±1.33, the Eyelid closure is on record as 2±1.26 and the Fear amounted to 0.2±0.60. Also, in data set [2] (setting [3]), the Finger contact was 2±1.79, the Head touch is given as 2.6±1.56 and the Upright is reported as 1±1.61* *. For the same compound, in data set [2] (setting [4]), the Autonomic activity is listed as 0.8±1.60, the Awakening is listed as 3±1.61, the Eyelid closure amounted to 1.2±0.98 and the Fear turned out to be 0±0. Besides, in data set [2] (setting [4]), the Finger contact came to 1.6±1.50 and the Head touch worked out at 1±1.34. In data set [2] (setting [5]), the Autonomic activity was 0.8±1.60, the Awakening is given as 2.6±1.56, the Eyelid closure was 1.4±1.28 and the Fear came to 0±0. In data set [2] (setting [5]), the Finger contact stood at 1.8±1.66 and the Head touch was determined as 1.8±1.40.
